Patent US20210115104A1, “AMYLIN ANALOGUES” (Zealand Pharma A/S, priority 2015, published 2021)
*1 amine or outer side, *2 acyl side, *3 side chain or, on linkers, in order; H or OH if unused. Where a SMILES comes first, the peptide text is derived from it. Bridges are numbered along the chain shown (N, C = ends). The star is where a group is joined. C20 diacid = O=C(O)CCCCCCCCCCCCCCCCCCC(=O)*; γGlu = O=C(O)[C@H](CCC(=O)[*:2])N[*:1]

Legend:
[1] = Assessment of physical stability (Thioflavin T fibrillation); assay type: physicochemical; design: key: FND = fibrillation not detected; FD = fibrillation detected; conditions: 1 mg/ml, 40° C., ThT
Procedure: Solutions containing (i) 1 mg/ml of test peptide, 40 μM ThT and 50 mM phosphate (Ph) buffer (pH 7.0), (ii) 1 mg/ml of test peptide, 40 μM ThT and 50 mM histidine (His) buffer (pH 7.0), and (iii) 1 mg/ml of test peptide, 40 μM ThT and 50 mM acetate (Ac) buffer (pH 4.0), were loaded in a 96-well black fluorescence plate (clear bottom) in triplicate. Data were collected at fixed intervals of 10 min, each preceded by 300 s of automixing (agitation), over a period of 96 hours at 40° C. Physical stability, expressed as lag-time of fibril formation (in hours), was defined as the intersection between two linear regressions representing the initial stable phase and the growth phase.

[2] = Assessment of chemical stability (RP-HPLC normalized purity); assay type: physicochemical
Procedure: Samples of each test peptide were dissolved in MilliQ™ water, and the pH of the solution was adjusted to pH 4, pH 6, pH 7.5 or pH 9, respectively, using either HCl or NaOH. The final peptide concentration was 0.2 mg/ml. Samples were placed in glass vials and incubated at 40° C. The samples were analyzed by RP-HPLC on a C8 column with gradient elution using an ammonium formate/water eluent system, or on a C18 column with gradient elution using a trifluoroacetic acid/water eluent system. The area-percentage (area-%) of the main peak after incubation time T=t (relative to time T=0) was determined by UV spectroscopy at 220 nm.
The purity was first determined as follows:
Purity(area-%)=(area of main peak/total area of all peaks)×100.
The purity was then normalized between time points by setting purity at time 0 (T=0) to 100 for each pH value for a given peptide, as follows:
Normalised area-% at time t (T=t)=[area-%(T=t)/area-%(T=0)]×100.
The normalized purity values in Table 1 were determined after 7 days of incubation.
The chemical stability assessment described in Example 6 was repeated for four pairs of compounds, each differing only by the presence or absence of an Asn-Asn (N—N) doublet at positions 21 and 22.

For `CC[C@H](C)[C@H](NC(=O)[C@@H]1CCCN1C(=O)CNC(=O)[C@H](Cc1ccccc1)NC(=O)[C@H](CC(N)=O)NC(=O)[C@H](CC(N)=O)NC(=O)[C@H](CO)NC(=O)[C@H](CO)NC(=O)[C@H](Cc1c[nH]cn1)NC(=O)[C@@H](NC(=O)[C@H](CC(C)C)NC(=O)[C@H](Cc1ccccc1)NC(=O)[C@H](CC(N)=O)NC(=O)[C@H](C)NC(=O)[C@H](CC(C)C)NC(=O)[C@H](CCCNC(=N)N)NC(=O)[C@H](CCC(N)=O)NC(=O)[C@@H](NC(=O)[C@H](C)NC(=O)[C@@H]1CSSC[C@H](NC(=O)[C@@H](N)CCCCN)C(=O)N[C@@H](CC(N)=O)C(=O)N[C@@H]([C@@H](C)O)C(=O)N[C@@H](C)C(=O)N[C@@H]([C@@H](C)O)C(=O)N1)[C@@H](C)O)C(C)C)C(=O)N[C@@H](CC(C)C)C(=O)N1CCC[C@H]1C(=O)N1CCC[C@H]1C(=O)N[C@H](C(=O)N[C@@H](CC(N)=O)C(=O)N[C@H](C(=O)NCC(=O)N[C@@H](CO)C(=O)N[C@@H](CC(N)=O)C(=O)N[C@H](C(=O)N[C@@H](Cc1ccc(O)cc1)C(N)=O)[C@@H](C)O)C(C)C)[C@@H](C)O` [Pramlintide, reference compound], the “Fibrillation pH 4.0 (Ac)” value ([1]; 50 mM acetate buffer pH 4.0, 96 hours) was “FD” and the “Fibrillation pH 7.0 (Phos.)” value ([1]; 50 mM phosphate buffer pH 7.0, 96 hours) was “FD”.

With `CC[C@H](C)[C@H](NC(=O)[C@@H]1CCCN1C(=O)CNC(=O)[C@H](Cc1ccccc1)NC(=O)[C@H](CO)NC(=O)[C@H](CO)NC(=O)[C@H](Cc1c[nH]cn1)NC(=O)[C@H](Cc1c[nH]cn1)NC(=O)[C@H](CC(C)C)NC(=O)[C@H](Cc1ccccc1)NC(=O)[C@H](CCC(=O)O)NC(=O)[C@H](C)NC(=O)[C@H](CC(C)C)NC(=O)[C@H](CCCNC(=N)N)NC(=O)[C@H](CCC(N)=O)NC(=O)[C@@H](NC(=O)[C@H](C)NC(=O)[C@@H]1CSSC[C@H](NC(=O)[C@H](CCCNC(=N)N)NC(=O)CC[C@H](NC(=O)CCCCCCCCCCCCCCCCCCC(=O)O)C(=O)O)C(=O)N[C@@H](CC(N)=O)C(=O)N[C@@H]([C@@H](C)O)C(=O)N[C@@H](C)C(=O)N[C@@H]([C@@H](C)O)C(=O)N1)[C@@H](C)O)C(=O)N[C@@H](CC(C)C)C(=O)N1CCC[C@H]1C(=O)N1CCC[C@H]1C(=O)N[C@H](C(=O)N[C@@H](CC(N)=O)C(=O)N[C@H](C(=O)NCC(=O)N[C@@H](CO)C(=O)N[C@@H](CC(N)=O)C(=O)N[C@H](C(=O)N1CCC[C@H]1C(N)=O)[C@@H](C)O)C(C)C)[C@@H](C)O` [Compound 97, reference compound] ({C20 diacid-γGlu}-RCNTATCATQRLAEFLHHSSFGPILPPTNVGSNTP-NH2; disulfide 2-7) the “Normalized purity pH 4 (Table 5)” value ([2]; pH 4, repeat of Example 6 for pairs with/without Asn-Asn at 21-22) was “A (A = >90%)”, the “Normalized purity pH 6 (Table 5)” value ([2]; pH 6, repeat of Example 6 for pairs with/without Asn-Asn at 21-22) was “A (A = >90%)” and the “Normalized purity pH 7.5 (Table 5)” value ([2]; pH 7.5, repeat of Example 6 for pairs with/without Asn-Asn at 21-22) was “A (A = >90%)”. The “Normalized purity pH 9 (Table 5)” value ([2]; pH 9, repeat of Example 6 for pairs with/without Asn-Asn at 21-22) was “A (A = >90%)”.
